The test system of test [1] is MCF-7 human breast cancer cells. The experiment in a line: [14C]acetate incorporation into total lipids. The conditions noted are these: MCF7. In kind it is cell-based. Here is the method: Measurement of [^14 C]acetate Incorporation into Total Lipids and Determination of IC50 of Compounds
This assay measures the incorporation of [^14C]acetate into total lipids and is a measure of fatty acid synthesis pathway activity in vitro. It is utilized to measure inhibition of fatty acid synthesis in vitro.
MCF-7 human breast cancer cells cultured as above, are plated at 5×10^4 cells per well in 24-well plates. Following overnight incubation, the compounds to be tested, solubilized in DMSO, are added at 5, 10, and 20 μg/ml in triplicate, with lower concentrations tested if necessary. DMSO is added to triplicate wells for a vehicle control. C75 is run at 5 and 10 μg/ml in triplicate as positive controls. After 4 hours of incubation, 0.25 μCi of [^14C]acetate (10 μl volume) is added to each well.
After 2 hours of additional incubation, medium is aspirated from the wells and 800 μl of chloroform:methanol (2:1) and 700 μl of 4 mM MgCl2 is added to each well. Contents of each well are transferred to 1.5 Eppendorf tubes, and spun at full-speed for 2 minutes in a high-speed Eppendorf Microcentrifuge 5415D. After removal of the aqueous (upper) layer, an additional 700 μl of chloroform:methanol (2:1) and 500 μl of 4 mM MgCl2 are added to each tube and then centrifuged for 1 minutes as above. The aqueous layer is removed with a Pasteur pipette and discarded. An additional 400 μl of chloroform:methanol (2:1) and 200 μl of 4 mM MgCl2 are added to each tube, then centrifuged and aqueous layer is discarded. The lower (organic) phase is transferred into a scintillation vial and dried at 40° C. under N2 gas. Once dried, 3 ml of scintillant (APB #NBC5104) is added and vials are counted for ^14C. The Beckman Scintillation counter calculates the average cpm values for triplicates.
The IC50 for the compounds is defined as the concentration of drug leading to a 50% reduction in [^14C]acetate incorporation into lipids compared to controls. This is determined by plotting the average cpm for each inhibitor concentration tested, performing linear regression and computing the best-fit line, r^2 values, and 95% confidence intervals. The average cpm values are computed by the Beckman scintillation counter (Model LS6500) for each compound concentration. Computation of linear regression, best-fit line, r^2, and 95% confidence intervals are calculated using Prism Version 3.0 (Graph Pad Software).

The test system is the same in test [2]. The experiment in a line: XTT cytotoxicity assay, MCF-7 (M). It is filed as cell-based. The settings on record: Homo sapiens, MCF7; (M) or no code; MCF-7, 72 hours. The protocol:
The XTT assay is a non-radioactive alternative for the [^51Cr] release cytotoxicity assay. XTT is a tetrazolium salt that is reduced to a formazan dye only by metabolically active, viable cells. The reduction of XTT is measured spectrophotometrically as OD490-OD650.
To measure the cytotoxicity of specific compounds against cancer cells, 9×10^3 MCF-7 human breast cancer cells, obtained from the American Type Culture Collection are plated per well in 96 well plates in DMEM medium with 10% fetal bovine serum, insulin, penicillin, and streptomycin. Following overnight culture at 37° C. and 5% CO2, the compounds to be tested, dissolved in DMSO, are added to the wells in 1 μl volume at the following concentrations: 80, 40, 20, 10, 5, 2.5, 1.25, and 0.625 μg/ml in triplicate. Additional concentrations are tested if required. 1 μl of DMSO is added to triplicate wells are the vehicle control. C75 is run at 40, 20, 10, […], 10, and 5 in triplicate as positive controls.
After 72 hours of incubation, cells are incubated for 4 hours with the XTT reagent as per manufacturer's instructions (Cell Proliferation Kit II (XTT) Roche). Plates are read at OD490 and OD650 on a Molecular Devices SpectraMax Plus Spectrophotometer. Three wells containing the XTT reagent without cells serve as the plate blank. XTT data are reported as OD490-OD650. Averages and standard error of the mean are computed using SOFTmax Pro software ([…]).
The IC50 for the compounds is defined as the concentration of drug leading to a 50% reduction in OD400-OD650 compared to controls. The OD400-OD650 are computed by the SOFTmax PRO software (Molecular Devices) for each compound concentration. IC50 is calculated by linear regression, plotting the FAS activity as percent of control versus drug concentrations. Linear regression, best-fit line, r^2, and 95% confidence intervals are determined using Prism Version 3.0 (Graph Pad Software).
(Tetrazolium dyes change colour on reduction, which living cells bring about.)

Test [3] concerns OV. The experiment in a line: XTT cytotoxicity assay, OV. It is filed as cell-based.
Test [4] has as its system H. Put plainly: Crystal violet cell growth assay, H. It is filed as cell-based. The conditions noted are these: read-out: Cr. Violet (IC50). Here is the method: Crystal Violet Cell Growth Assay
The crystal violet assay measure cell growth but not cytotoxicity. This assay employs crystal violet staining of fixed cells in 96-well plates with subsequent solubilization and measurement of OD490 on a spectrophotometer. The OD490 corresponds to cell growth per unit time measured. Cells are treated with the compounds of interest or vehicle controls and IC50 for each compound is computed.
To measure the cytotoxicity of specific compounds against cancer cells, 5×10^4 MCF-7 human breast cancer cells, obtained from the American Type Culture Collection are plated per well in 24 well plates in DMEM medium with 10% fetal bovine serum, penicillin, and streptomycin. Following overnight culture at 37° C. and 5% CO2, the compounds to be tested, dissolved in DMSO, are added to the wells in 1 μl volume at the following concentrations: 50, 40, 30, 20, and 10 μg/ml in triplicate. Additional concentrations are tested if required. 1 μl of DMSO is added to triplicate wells are the vehicle control. C75 is run at 10, and 5 μg/ml in triplicate as positive controls.
After 72 hours of incubation, cells are stained with 0.5 ml of Crystal Violet stain (0.5% in 25% methanol) in each well. After 10 minutes, wells are rinsed, air dried, and then solubilized with 0.5 ml 10% sodium dodecylsulfate with shaking for 2 hours. Following transfer of 100 μl from each well to a 96-well plate, plates are read at OD490 on a Molecular Devices SpectraMax Plus Spectrophotometer Average OD490 values are computed using SOFTmax Pro Software (Molecular Devices) and IC50 values are determined by linear regression analysis using Prism version 3.02 (Graph Pad Software, San Diego).

Test [5] concerns FAO. The experiment in a line: FAO SC 150 / FAO Max. The settings on record: for FAO Max: at the concentration given under E18.

In brackets after ≈: the same amount, converted by molar mass. Bounds are passed on as bounds.

Broadly, the IC50 is the concentration at which inhibition is half-maximal. Turning to `CCCCCCCCC1(C)SC(=O)C=C1OCC(=O)NNc1nc2ccccc2s1` (single isomer, unassigned) [Compound 17, (5-Methyl-5-octyl-2-oxo-thiophen-4-yloxy)-acetic-acid-N′-(2-benzothiazole)-hydrazide], the IC50 is above 80 µg/mL in test [1], 74 µg/mL (≈ 165 µM) in test [2], 38.7 µg/mL (≈ 86.5 µM) in test [3] and 17.8 µg/mL (≈ 39.8 µM) in test [4]. Moreover, the “FAO Max: concentration at which the maximum was seen” value (“FAO Max: concentration” for short) in test [5] came to 6.25 µg/mL. The “FAO SC 150” value in test [5] turned out to be 4.9 µg/mL. Further, the “FAO Max” value in test [5] is given as 167% @.
On to `CCCCCCCCC1(C)SC(=O)C=C1OCC(=O)NNc1ccccc1` (stereo not drawn) [Compound 10, (5-Methyl-5-octyl-2-oxo-thiophen-4-yloxy)-acetic-acid-N′-phenylhydrazide], for which the IC50 in test [1] was 7.2 µg/mL (≈ 18.4 µM); in test [2], 6.9 µg/mL (≈ 17.7 µM); in test [3], 13.2 µg/mL (≈ 33.8 µM); in test [4], 8.4 µg/mL (≈ 21.5 µM). The “FAO Max: concentration” value in test [5] was 6.25 µg/mL. Moreover, the “FAO SC 150” value in test [5] is “Neg”. Moreover, the “FAO Max” value in test [5] was 126% at.
As to `CCCCCCCCC1(C)SC(=O)C=C1OCC(=O)NNc1cccc(C)c1` (stereo not drawn) [Compound 11, (5-Methyl-5-octyl-2-oxo-thiophen-4-yloxy)-acetic-acid-N′-(3-methylphenyl)-hydrazide], the half-inhibitory concentration (IC50) in test [1] turned out to be 12 µg/mL (≈ 29.7 µM); in test [2], 9 µg/mL (≈ 22.2 µM); in test [3], 10.1 µg/mL (≈ 25 µM); in test [4], 21.9 µg/mL (≈ 54.1 µM). In addition, the “FAO Max: concentration” value in test [5] amounted to 1.56 µg/mL. In test [5], the “FAO SC 150” value is recorded as “Neg”. For the same compound, the “FAO Max” value in test [5] turned out to be 116% @.
For the compound `CCCCCCCCC1(C)SC(=O)C=C1OCC(=O)NNc1ccc(OC)cc1` (stereo not drawn) [Compound 13, (5-Methyl-5-octyl-2-oxo-thiophen-4-yloxy)-acetic-acid-N′-(4-methoxyphenyl)-hydrazide], the IC50 in test [1] was 21.3 µg/mL (≈ 50.6 µM); in test [2] it was 9 µg/mL (≈ 21.4 µM); in test [3], 18 µg/mL (≈ 42.8 µM); in test [4], 12.3 µg/mL (≈ 29.2 µM). For the same compound, the “FAO Max: concentration” value in test [5] came to 0.098 μg/ml ug/ml. For the same compound, the “FAO SC 150” value in test [5] is “Neg”. In test [5], the “FAO Max” value worked out at 103% at.
Regarding `CCCCCCCCC1(C)SC(=O)C=C1OCC(=O)NNc1ccc(Cl)cc1Cl` (stereo not drawn) [Compound 14, (5-Methyl-5-octyl-2-oxo-thiophen-4-yloxy)-acetic-acid-N′-(2,4-dichlorophenyl)-hydrazide], the 50% inhibitory concentration (IC50) in test [1] was determined as 18.3 µg/mL (≈ 39.8 µM); in test [2] it was 6.9 µg/mL (≈ 15 µM); in test [3], 12.8 µg/mL (≈ 27.9 µM); in test [4] it was 7.3 µg/mL (≈ 15.9 µM). The “FAO Max: concentration” value in test [5] is reported as 0.098 μg/ml ug/ml. Moreover, the “FAO SC 150” value in test [5] was “Neg”. Moreover, in test [5], the “FAO Max” value is 100% at.
Take `CCCCCCCCC1(C)SC(=O)C=C1OCC(=O)NNc1ccc(Cl)c(Cl)c1` (stereo not drawn) [Compound 15, (5-Methyl-5-octyl-2-oxo-thiophen-4-yloxy)-acetic-acid-N′-(3,4-dichlorophenyl)-hydrazide]: the IC50 amounted to 13.3 µg/mL (≈ 28.9 µM) in test [1], 11.4 µg/mL (≈ 24.8 µM) in test [2], 15.2 µg/mL (≈ 33.1 µM) in test [3] and 8.5 µg/mL (≈ 18.5 µM) in test [4]. For the same compound, the “FAO Max: concentration” value in test [5] was 0.395 μg/ml ug/ml. Moreover, in test [5], the “FAO SC 150” value is recorded as “Neg”. In test [5], the “FAO Max” value is 100% at.

The values are drawn from patent publication US20100168176A1, “NOVEL COMPOUNDS, PHARMACEUTICAL COMPOSITIONS CONTAINING SAME, AND METHODS OF USE FOR SAME” (FASGEN LLC, priority 2006, published 2010).
